# Assay results: patent US20060217305A1, “Induction of tumor cell senescence by retinoid receptor agonists and antagonists” (Ordway Research Institute, Inc., priority 2005, published 2006)
# Entries after “also recorded” stand apart in the source; their conditions may differ. Like-named read-outs stand apart in the source and are kept apart here.
# Assays:
# Assay type in all cases: cell-based, human
# [1] = system: retinoid-inducible genes EPLIN, UBD, IGFBP3, TGFB1 and TRIM31 in MCF-7 cells (subline MCF-7 3′SS6); assay: real-time RT-PCR (QPCR) of retinoid-inducible gene expression, 2 days treatment; conditions: for Fold induction EPLIN / Fold induction IGFBP3 / Fold induction TGFBI / Fold induction TRIM31 / Fold induction UBD / fold induction at 0.1 µM: 2 days, MCF-7; for fold induction at 0.1 µM: Homo sapiens, MCF7, 48 h
# From the text: The following compounds were obtained from Ligand Pharmaceuticals (San Diego, Calif.). LGD1550 is a pan-RAR agonist. LGD1268 is a pan-RXR agonist. LG100815 is a pan-RAR antagonist. LG101208 is a pan-RXR antagonist. The LG100815 compound is a specific RAR antagonist that binds to RAR, but fails to activate its Retinoic Acid Responsive Element (RARE)-dependent transcription transactivation function (see Lee et al, Mol. Cell Biol. 19: 1973-1980 (1999)). Also used was all-trans retinoic acid (RA), the most commonly used RAR agonist. To determine how these compounds affect the expression of retinoid-inducible growth inhibitory genes EPLIN, UBD, IGFBP3 and TGFB1, as well as TRIM31 gene that contains a putative RARE element in its promoter, MCF-7 cells (subline MCF-7 3′SS6) were treated with individual compounds or their combinations for 2 days, and RNA was extracted by standard procedures. In the initial assays, gene expression was analyzed by semi-quantitative reverse transcription-PCR (RT-PCR), as described in Dokmanovic et al., Cancer Biology & Therapy 1:24-27 (2002). In subsequent assays, the initial results were confirmed, expanded and quantitated by real-time RT-PCR (QPCR), using Applied BioSystems 7900HT real-time PCR instrument. β-actin was used as a normalization standard.
# cDNA was prepared by reverse transcription with random primer using 4 μg total RNA. 5 μl SYBR Green PCR Master Mix (Applied Biosystems) was mixed with […] cDNA and 0.8 pmol of gene-specific primers and brought up to 10 μl with ultra pure H2O in 384-well optical plates. For amplification, reaction mixtures were heated for 2 min at 50° C. and 10 min at 95° C., followed by 40 cycles of two-step PCR consisting of 15 sec at 95° C. and 1 min at 60° C., to construct dissociation curves and verify that single PCR products were obtained. PCR products were also analyzed by gel electrophoresis to confirm that a single product of the expected size was amplified. […] The comparative CT method for relative quantitation of gene expression described by Applied Biosystems was used to determine expression levels for target genes. Experiments were carried out in triplicate for each data point. Sequence Detection Systems software version 2.1 (Applied Biosystems) and Microsoft Excel were used for data analysis.
# MCF-7 cells [2] = assay: MCF-7 cell growth, cell number after 7 days; conditions: 100 nM RA, LGD1550, LGD1268, 10 μM LG100815, LG101208
# Protocol: The bars represent cell number after 7 days of culture with the addition of DMSO (control), 100 nM RA, 100 nM RAR agonist LGD1550, 100 nM RXR agonist LGD1268, 10 μM RAR antagonist LG100815, and 10 μM RXR antagonist LG101208. Experiments were done in triplicate, and the results are expressed relative to the average of the control.
# (§1) To test this, we have analyzed the effects of different compounds on the growth of MCF-7 cells, as measured by the cell number after 7 days exposure to the compounds (FIG. 2) and on the fraction of cells expressing the senescence-associated β-galactosidase activity (SA-β-gal), a marker of senescence, after 7-day treatment with the compounds (FIG. 3).
# MCF-7 cells [3] = assay: senescence-associated β-galactosidase (SA-β-gal) positive cells; conditions: 7-day treatment (FIG. 3 legend: 8 days); concentrations as in FIG. 2
# From the text: The bars represent percentages of SA-β-gal+ cells after 8 days of treatment with the indicated compounds (in triplicate). The compounds were used at the same concentrations as in FIG. 2.
# as §1
# [4] = system: DR5 RARE-containing promoter in MCF-7 cells; assay: DR5-luciferase transient transfection assay (RARE-dependent transcription); conditions: 100 nM, 24 hrs
# Protocol: The assays were carried out in triplicate. RA is all-trans retinoic acid. LGD1550 is a pan-RAR agonist. LG100815 is a pan-RAR antagonist.
# To confirm the ability of LG100815 to antagonize RARE-dependent induction of transcription analysis of firefly luciferase expression from a RARE-containing artificial promoter DR5 (Stratagene, catalog number 240119) was performed. Cells were plated to the density of 3×10^5 in P60 24 hrs before transient transfection. DR5 reporter plasmid (4 μg) was mixed with the SV40-driven-Renilla luciferase control plasmid (0.04 μg) and transfected using Lipofectamine Plus (Life Technologies/Invitrogen, Carlsbad, Calif.) as described by the manufacturer. 3 hrs after transfection, cells were rinsed three times with PBS, trypsinized and replated in a 12-well plate to the density of 5×10^4 cells per well. Retinoid agonists and antagonists were added 48 hrs later, and the luciferase assay was performed after another 24 hrs.
compound,measurement,setting,value
Cc1cc2c(cc1C1(c3ccc(C(=O)O)cn3)CC1)C(C)(C)CCC2(C)C [LGD1268],Fold induction EPLIN,[1]; 100 nM,1.2 ± 0.2 fold
same,Fold induction IGFBP3,[1]; 100 nM,1.2 ± 0.5 fold
same,Fold induction TGFBI,[1]; 100 nM,1.9 ± 1.1 fold
same,Fold induction TRIM31,[1]; 100 nM,1.3 ± 0.4 fold
same,Fold induction UBD,[1]; 100 nM,1.0 ± 0.1 fold
same,Fold induction EPLIN,[1]; 1 μM,1.0 ± 0.1 fold
same,Fold induction IGFBP3,[1]; 1 μM,0.9 ± 1.1 fold
same,Fold induction TGFBI,[1]; 1 μM,2.2 ± 1.0 fold
same,Fold induction TRIM31,[1]; 1 μM,1.4 ± 0.7 fold
same,Fold induction UBD,[1]; 1 μM,0.8 ± 0.2 fold
same,Fold induction EPLIN,[1]; 10 μM,1.4 ± 0.2 fold
same,Fold induction IGFBP3,[1]; 10 μM,1.2 ± 0.4 fold
same,Fold induction TGFBI,[1]; 10 μM,2.4 ± 0.3 fold
same,Fold induction TRIM31,[1]; 10 μM,3.8 ± 0.7 fold
same,Fold induction UBD,[1]; 10 μM,1.0 ± 0.2 fold
same,"effect on expression of the five genes (IGFBP3, EPLIN, UBD, TGFB1, TRIM31)","[1]; summary of Table 2, MCF-7",induced only one of five genes (TGFB1)
same,effect on MCF-7 cell growth (cell number),MCF-7 cells [2],did not inhibit cell growth; also recorded: modest but reproducible increase in cell growth
same,induction of senescent phenotype (SA-β-gal+ cells),MCF-7 cells [3],did not induce the senescent phenotype
"CC1=C(/C=C/C(C)=C/C=C/C(C)=C/C(=O)O)C(C)(C)CCC1 [RA, all-trans retinoic acid]",ratio of the fold-induction of TGFB1 relative to TRIM31,[1]; 100 nM,0.19
same,fold induction at 0.1 µM,"[1]; 100 nM, read-out: Fold induction EPLIN",3.1 ± 0.7
same,fold induction at 0.1 µM,"[1]; 100 nM, read-out: Fold induction IGFBP3",2.5 ± 0.5
same,fold induction at 0.1 µM,"[1]; 100 nM, read-out: Fold induction TGFBI",6.5 ± 1.4
same,fold induction at 0.1 µM,"[1]; 100 nM, read-out: Fold induction TRIM31",34.4 ± 3.9
same,fold induction at 0.1 µM,"[1]; 100 nM, read-out: Fold induction UBD",8.5 ± 2.8
same,induction of luciferase expression from DR5 RARE-containing promoter,[4],approximately 50 fold
